# Reference: ChEMBL document CHEMBL1667729, “Malyngamide 2, an oxidized lipopeptide with nitric oxide inhibiting activity from a Papua New Guinea marine cyanobacterium” (J Nat Prod, 2011)
# Calls of active or inactive are those of the source. The calls are words filed in the database; no cut-off is given here. Numbered stars: 1 amine (or outer) side, 2 acyl side, 3 side chain; on linkers, the order of the positions; unused ones are H or OH. Square brackets hold non-standard residues; d marks the D form. Peptide text beside a SMILES is read from it. PheOxz = O=C(c1coc([C@H](Cc2ccccc2)N[*:1])n1)[*:2]; X2 = CC[C@H](C)[C@H](N[*:1])c1nc(C(=O)[*:2])co1; X1 = Cc1oc([C@@H](N[*:1])C(C)C)nc1C(=O)[*:2]
# Experiments:
# [1] = system: RAW264.7; test: Anti-inflammatory activity against mouse RAW264.7 cells assessed as inhibition of LPS-induced NO production after 24 hrs; type: functional, cell-based; settings: RAW264.7, 24 h
# [2] = system: RAW264.7; test: Cytotoxicity against mouse RAW264.7 cells at 21 uM; type: functional; settings: read-out: Survival
# [3] = system: NCI-H460; test: Cytotoxicity against human H460 cells; type: functional, cell-based
# [4] = system: Neuro2a; test: Inhibition of voltage-gated sodium channel in mouse Neuro2a cells at 17.5 uM
Compound,IC50 [1] [µM],viability at 21 µM [2] [%],IC50 [3] [µM],inhibition [4]
CCCCCCC[C@@H](C/C=C/CCC(=O)NC/C(=C/Cl)[C@@H]1C(=O)[C@H](O)C[C@@H](O)[C@]1(C)O)OC [MALYNGAMIDE],8,94,27.3,–
CC[C@H](C)[C@@H]1NC(=O)[C@@H]2CCCN2C(=O)[C@H](Cc2ccccc2)NC(=O)c2coc(n2)[C@H](Cc2ccccc2)NC(=O)c2nc(oc2C)[C@H](C(C)C)NC(=O)CNC(=O)[C@@H]2CCCN2C(=O)[C@@H]2CCCN2C(=O)[C@H](C)NC(=O)c2coc1n2 [WEWAKAZOLE] (cyclo(APPG[X1][PheOxz]FP[X2])),–,–,10.1,inactive
